Data: PMC8667925, “New 1,2,4-oxadiazole derivatives with positive mGlu4 receptor modulation activity and antipsychotic-like properties” (Journal of Enzyme Inhibition and Medicinal Chemistry, 2021)
“Also recorded” adds a separate entry of the source. Marks after values point to notes of the source that are not given here.

Legend:
mGlu4 receptor = molecular target: T1, mGlu4 receptor (Homo sapiens, UniProt Q14833); assay: forskolin-stimulated cAMP assay, PAM mode (EC20 of L-Glu), T-REx 293 cells; format: cell-based; conditions: SEM where given; for EC50 / Emax: PAM mode; for EC50: EC20 (3 µM) L-Glu, T-REx 293 cells expressing human mGlu4 receptor; for Emax: T-REx-293, human mGlu4, read-out: GluMax; for Fold shift of L-Glu dose-response curve: in the presence of 10 µM of compound
T1 construct: mGlu4 receptor NM_000841, mGlu7 receptor NM_000844.2, and mGlu8 receptor NM_000845; expressed in transfected cells; host or cells: T-REx 293
T1 sequence (Q14833 33-912): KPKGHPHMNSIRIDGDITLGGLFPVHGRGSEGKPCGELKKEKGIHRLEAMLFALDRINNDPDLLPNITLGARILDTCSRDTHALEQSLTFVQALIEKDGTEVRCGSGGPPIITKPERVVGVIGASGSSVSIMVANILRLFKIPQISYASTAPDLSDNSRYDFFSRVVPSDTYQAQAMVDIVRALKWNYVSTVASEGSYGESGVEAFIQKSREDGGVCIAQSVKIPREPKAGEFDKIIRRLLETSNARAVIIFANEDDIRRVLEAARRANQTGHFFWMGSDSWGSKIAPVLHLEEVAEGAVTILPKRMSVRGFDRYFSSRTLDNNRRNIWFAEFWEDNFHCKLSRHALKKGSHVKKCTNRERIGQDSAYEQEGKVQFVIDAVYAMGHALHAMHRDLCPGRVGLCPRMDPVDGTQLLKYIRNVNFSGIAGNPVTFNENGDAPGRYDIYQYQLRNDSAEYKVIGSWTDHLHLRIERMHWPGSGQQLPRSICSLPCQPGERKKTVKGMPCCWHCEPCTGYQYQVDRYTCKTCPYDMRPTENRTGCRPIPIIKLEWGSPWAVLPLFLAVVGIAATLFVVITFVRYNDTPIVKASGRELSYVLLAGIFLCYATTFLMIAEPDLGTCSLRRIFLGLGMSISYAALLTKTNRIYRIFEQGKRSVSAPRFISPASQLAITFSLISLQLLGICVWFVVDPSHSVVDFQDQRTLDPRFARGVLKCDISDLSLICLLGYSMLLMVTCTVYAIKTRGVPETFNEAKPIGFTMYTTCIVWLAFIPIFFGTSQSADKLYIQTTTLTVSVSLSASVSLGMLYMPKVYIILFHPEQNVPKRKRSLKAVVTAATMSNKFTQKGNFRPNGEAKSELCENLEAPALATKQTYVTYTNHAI
Description: The activity of the compounds was assessed in vitro in a forskolin-stimulated cAMP assay in T-REx 293 cells expressing human mGlu4 receptors in the presence of an EC20 concentration of L-Glu; a PAM was identified if it potentiated cAMP inhibition by the Gi/o-dependent pathway of mGlu4 receptor activation; i.e. if it was able to produce a leftward shift in the potency of the endogenous agonist.
Determination of the intracellular cAMP through a homogeneous time-resolved fluorescence (HTRF) cAMP dynamic 2 kit from Cisbio (Codolet, France) was described previously by Chruścicka et al.[91]. Briefly, cells were grown in DMEM supplemented with 10% foetal bovine serum (FBS) (tetracycline free). Forty-eight hours before the experiments, mGlu receptor expression was induced by the addition of 0.75 µg/mL tetracycline. Twenty hours before the experiment, FBS and L-Glu were removed from the medium. Thereafter, the cells were scraped and centrifuged. A cell pellet was suspended in Hanks-HEPES (130 mM NaCl, 5.4 mM KCl, 1.8 mM CaCl2, 0.8 mM MgSO4, 0.9 mM NaH2PO4, 20 mM HEPES, and 3.25 mM glucose; pH 7.4). Then, the cell suspension was incubated in the presence of 10 µM forskolin (or 3 µM forskolin for mGlu7 receptor), the agonist L-glutamate and a compound for 5 min. Next, 10 µl of the cell suspension was mixed with 5 µl of cAMP-d2 conjugate and 5 µL of anti-cAMP cryptate conjugate. After 1 h of incubation at rt, the fluorescence at 620 nm and 665 nm was read (Tecan Infinite M1000). The results were calculated as the 665 nm/620 nm ratio multiplied by 10^4. Each sample was prepared in triplicate.
Statistical calculations were performed using GraphPad Prism 5.04 software (GraphPad Software, La Jolla, CA, USA). The curves were fitted to a 3-parametric logistic equation, allowing for the determination of EC50 values. Each data point was analysed in triplicate.

Albino Swiss mice = assay: modified stress-induced hyperthermia (SIH) in singly housed mice; format: in vivo
Description: The compounds were dissolved in a small amount of 100% EtOH and then adjusted with 20% cyclodextrin, and the pH was adjusted to 6.0. The investigated compounds were administered intraperitoneally (i.p.) 60 min before the behavioural test. Control drugs i.e. diazepam, clozapine and imipramine (Sigma–Aldrich, St. Louis, USA), were administered i.p. 60 min before the behavioural test. Cyclodextrin (20%) was used as a vehicle. All solutions were prepared immediately prior to the experiments and were administered at a constant volume of 10 ml/kg.
The procedure for modified stress-induced hyperthermia was adapted from Van der Heyden[93] and based on the procedure introduced by Borsini[94]. Each experimental group consisted of eight to ten animals. The animals were housed individually in a 26 × 21 × 14 cm Macolon cage 24 h before testing. For this assay, the body temperature was measured for each mouse at t = 0 min (T1) and t = +15 min (T2). Albino Swiss mice were placed into a new cage immediately following T1, with the difference in temperature (T2−T1) used as the measure of stress-induced hyperthermia. […] A comparison between T1 in vehicle-treated mice and those administered the test compound was used to determine whether the agent affects body temperature alone. Diazepam (5 mg/kg) was used as the positive control. The rectal temperature was measured to the nearest 0.1 °C with a Physitemp Theralert thermometer, TH-5, Clifton NJ, USA, with the temperature sensor for mice, Type T, Copper-Constantan Thermocouple, Braintree Scientific Inc. The lubricated thermistor probe (2 mm diameter) was inserted 20 mm into the rectum. The mouse was held at the base of the tail during this determination, and the thermistor probe was left in place until a constant reading was obtained for 15 s. The effects of the investigated compounds on the SIH response were investigated after administration of the compounds at doses of 5, 10 and 20 mg/kg.

[1] = system: Salmonella typhimurium strains TA98 and TA100; format: cell-based; conditions: TA98 and TA100, with and without S9, ≤ 30 µM
Description: The primary assessment of the cardiotoxic risk and mutagenic potential of the six selected 1,2,4-oxadiazole derivatives was performed in the hERG channel assay and the mini-AMES test, respectively. The mutagenicity potential was determined in strains TA98 (frameshift mutation) and TA100 (base-pair substitution) of Salmonella typhimurium in the presence and absence of an exogenous metabolic activation system (rat liver S9 fraction) containing mammalian microsomal enzymes.
The Ames microplate fluctuation protocol (MPF) assay was performed with Salmonella typhimurium strains TA98 and TA100, […]. The bacterial strain as well as the exposure and indicator medium were obtained from Xenometrix AG (Allschwil, Switzerland). […] After the addition of indicator medium, each well of the 24-well plate was aliquoted into 48 wells of a 384-well plate.
The occurrence of reversion events to histidine prototrophy was observed as the growth of bacteria in the indicator medium without histidine after 72 h of incubation at 37 °C. Bacterial growth in 384-well plates was visualised by a colour change of medium from violet to yellow due to the addition of pH indicator dye. The absorbance was measured with a microplate reader (EnSpire) at 420 nm. The reference mutagen NQNO (0.5 mM) was used as a positive control in the experiments. The medium control baseline (MCB) was calculated, as derived from the mean number of revertants in the medium control plus one standard deviation.
AMES test was conducted with two Salmonella typhimurium strains TA98 and TA100 in the presence or absence of liver homogenate S9 to simulate the metabolic conversions of tested compounds with liver enzymes. The AMES MPF 98/100 assay from Xenometrix was performed as described by the supplier. Data were analysed with the AMES MPF calculation […]
(also on this page, place not known: TA10 cal culation TA98 - S9 Revertants TA98 + S9 Revertants - S9 Revertants TA100 + S9 Revertants TA98 - S9 Revertants TA98 + S9 Revertants TA100 - S9 Revertants 0 TA100 + S9 Revertants)

[2] = 5 mg/kg i.p., 60 min before test
[3] = 10 mg/kg i.p., 60 min before test
[4] = 20 mg/kg i.p., 60 min before test
[5] = over the doses 5, 10 and 20 mg/kg i.p.

Row | Structure (SMILES) | EC50 (mGlu4 receptor) [nM] | Emax (mGlu4 receptor) [%] | Fold shift of L-Glu dose-response curve (mGlu4 receptor) | effect on SIH response (Albino Swiss mice; [2]) | effect on SIH response (Albino Swiss mice; [3]) | effect on SIH response (Albino Swiss mice; [4]) | effect on SIH response (Albino Swiss mice; [5]) | mutagenic activity (mini-AMES) [1]
1 | COc1cc(NC(=O)c2ccccn2)ccc1-c1noc(-c2ccccc2Cl)n1 [Compound 34] | 656 | 114 | 13.4 (2.00)^d | not effective | effective; also recorded: statistically significant reduction in SIH | effective; also recorded: statistically significant reduction in SIH | significant anxiolytic- and antipsychotic-like properties | no mutagenic potential
2 | COc1cc(NC(=O)c2ccccn2)ccc1-c1noc(-c2ccccc2F)n1 [Compound 37] | 393 | 116 | 3.68 (0.19)^d |  | effective; also recorded: weak activity |  | significant anxiolytic- and antipsychotic-like properties | no mutagenic potential
3 | O=C(Nc1ccc(-c2noc(-c3ccccc3Cl)n2)c(Cl)c1)c1ccccn1 [Compound 52, N-(3-chloro-4-(5-(2-chlorophenyl)-1,2,4-oxadiazol-3-yl)phenyl)picolinamide] | 282 | 123 | 8.03 (0.76)^d |  |  |  | significant anxiolytic- and antipsychotic-like properties; also recorded: significantly reduced SIH responses at all three doses; also recorded: at all doses significantly reduced the SIH response | no mutagenic potential
4 | O=C(Nc1ccc(-c2noc(-c3ccccc3Cl)n2)c(C(F)(F)F)c1)c1ccccn1 [Compound 60] | 390 | 120 | 2.94 (0.1)^d | reduced the temperature increase caused by stress |  | reduced the temperature increase caused by stress | significant anxiolytic- and antipsychotic-like properties | no mutagenic potential
